Measured values from patent US20070248590A1, “Modulators of CDC2-like kinases (CLKS) and methods of use thereof” (Sirtris Pharmaceuticals, Inc., priority 2005, published 2007).

Assays:
HDAC = settings: in vitro or in vivo, literature; cited from earlier work
[1] = test system: insulin induction of CLK2 alternate splicing in FAO cells; experiment: CLK2 splicing analysis (RT-PCR with primers flanking exon 4) in FAO cells; assay type: cell-based, rat; settings: 20 μM inhibitor pretreatment
Procedure: Splicing Analysis. Total RNA was isolated from FAO hepatocytes pre-treated with indicated inhibitor then Insulin for 2 hours. RT-PCR was performed using SuperScript One-Step RT-PCR with taq (Invitrogen) on 1 ug of total RNA using primers flanking exon 4 on Clk2 and Clk1.

[2] = test system: PGC-1alpha and SIRT1 phosphorylation in H2.35 cells; experiment: Metabolic 32P PO4 labeling of H2.35 cells, insulin stimulated; assay type: cell-based, mouse; settings: 30 minutes pretreatment, 40 minute insulin stimulation
Procedure: PGC-1alpha and SIRT1 phosphorylation in vivo is stimulated by insulin and blocked by LY and TG003 as determined by metabolic ^32P PO4 labeling of H2.35 cells infected with adenovirus Flag-Ha-PGC-1alpha or Flag-HA-SIRT1. Cells were infected for 24 hours low glucose DMEM 4% FBS then serum starved for 24 hours in low glucose DMEM 0.5% BSA. Media was then replaced with PO4 free DMEM 0.5% BSA for 30 minutes, and cells were then pretreated with LY or TG003 for 30 minutes before addition of 100 uCi ^32P PO4. Cells were incubated in ^32P PO4 for 20 minutes before a 40 minute insulin stimulation. Cells were then washed with ice-cold PBS, harvested and lysed. Flag-HA-PCC-1alpha and Flag-HA-SIRT1 were immunoprecipitated used anti-flag agarose (Sigma-Aldrich, Cat. #A4596). Immunoprecipitates were washed extensively and analyzed by SDS-PAGE, transferred to PVDF membrane where ^32P signal was analyzed by a Bio-Rad Phosphor-Imager (Bio-Rad Laboratories) (FIG. 20A) and normalized to protein quantitated by western blot using anti-flag antibodies by a Versa-Doc camera system and quantitation software (Bio-Rad Laboratories) (FIG. 20B).

[3] = test system: total phosphorylation of PGC-1alpha and Sirt1 in FAO cells; experiment: Metabolic 32P labeling of PGC-1alpha and Sirt1 in FAO hepatocytes; assay type: cell-based, rat; settings: 40 μM TG003
Procedure: (§1) Cell Culture. HEK 293 Cells were cultured in DMEM+10% CCS. FAO Rat hepatocytes were grown in Hamm's F-12 media with 5% FBS. Prior to experiments or adenoviral infections media was switched to RPMI+0.5% BSA. H2.35 Mouse Hepatocytes were grown in DMEM (low glucose)+4% FBS and 2 μM Dexamethasome. Prior to experiments and infection, media was switched to DMEM (low glucose)+0.5% BSA. CLK inhibitor, TG003 (CalBiochem) was dissolved in DMSO.
Metabolic Labeling. HEK 293 were transfected as described above. The next morning cells were switched to DMEM without PO4+10% CCS for 30 minutes, cells were then treated with or without TG003 for 30 minutes then 200 μCi of ^32PO4 was added for 2 hours. Cells were harvested and immunoprecipitation was performed as described above. Immunoprecipitates were resolved by SDS-PAGE and transferred to PVDF membrane, ^32PO4 was detected by exposing membrane to Phospho-imaging screen and followed by Western-Blot using anti-flag antibodies (M2, Sigma).
FAO Hepatocytes were infected with adenovirus as indicated in the figures for 2 days in RPMI+0.5% BSA. Metabolic labeling was performed as described above, except cells were incubated in ^32PO4 for 4 hours.

[4] = test system: diet-induced obese (DIO) C57BL/6 mice; experiment: Oral dosing of TG003 in DIO mouse model; assay type: in vivo
Procedure: Twenty 9 week old C57BL/6 mice were placed on 60% kcal % fat diet (high fat diet with 60% of calories from fat; Research Diets, Inc., New Brunswick, N.J. Cat. No. D12492) and 15 mice were placed on regular chow. Mice were weighed once a week for 5 weeks, baseline fed glucose, triglycerides and insulin was measured. At approximately 6 weeks on the high fat diet, or when the average body weight of the DIO mice becomes 40 grams, dosing began at various doses and preparations. Mice were dosed daily with either vehicle (2% HPMC+0.2% DOSS) or with TG003 suspended in vehicle and dosed via oral gavage at 100 mg/kg (10 animals each in DIO group; 9 animals in vehicle chow group and 6 animals in TG003 chow group). The study was divided into DIO groups with mean average body weight/cage. Chow fed groups were also sorted by mean average body weight/cage. Body weights were measured once weekly to adjust dosing concentrations for body weight.
Baseline blood on all mice for glucose, triglycerides, insulin, etc. was taken following a one hour food withdrawal. Once dosing started, data collections were as follows: Week 1 time point included fasted blood glucose and body temps for select groups, Week 2 was a fed blood collection, Week 3 fasted blood glucose, Week 4 body temps on select groups and endpoint blood and tissue collection. Body temperature of select groups post dosing on week 1 and week 4 was also taken. Concentration of TG003 compound is adjusted to proper dose according to the mean weight for each group weekly. Final blood collection of all groups was taken 1 hour after dosing in order to determine levels of drug in blood compared to original PK. Mice were not dosed on the day of week 2 blood collections. Mice are typically dosed in the a.m. and only dosed in the p.m. on a day following a 16 hr fast. A test for Free Fatty Acids is done with the plasma final blood collection and with final plasma collection. Assays were done as described above for TG003 IP dosing example.

[5] = test system: CLK2 interaction with Sirt1 in HEK 293 cells; experiment: Co-immunoprecipitation of endogenous Sirt1 with Flag-CLK2 in HEK 293 cells; assay type: cell-based; settings: HEK 293 cells transfected with Flag-CLK2
Procedure: (§2) Immunoprecipitation and Co-Immunoprecipitation. Cells were washed once with PBS containing Phosphatase inhibitors (5 mM Glycerol-2-phosphate, 20 mM NaF, and 0.2 mM Na OrthoVanadate), scraped into tubes, spun down, and lysed by 2× freeze-thaw cycles in 0.4% Triton, 100 mM NaCl, 20 mM KHepes pH 7.9, 1 mM EDTA, Phosphatase inhibitors, 1 mM PMSF, and 1× Protease Inhibitors (Roche). Immunoprecipitations were performed with M2 anti-flag agarose (sigma) or Anti-HA agarose (Roche) for 2 hours rotating at 4 degrees C. followed by 3 washes in lysis buffer. Products were resolved by SDS-PAGE and transferred to PVDF membranes for Western blot analysis.

[6] = test system: CLK2 repression of PGC-1alpha coactivation of HNF4alpha; experiment: gAF1-luciferase (HNF4alpha response element) reporter assay in HEK 293 cells; assay type: cell-based, human; settings: 20 μM TG003
Procedure: Transient Transfections. HEK 293 were transfected using PolyFect (Qiagen). 25 ng of reporter (gAF1-Luciferase) and 25 ng of pcDNA mouse HNF4-alpha were transfected with pcDNA mouse PGC-1 alpha and pcDNA Flag-CLK2. Equal amounts of total DNA were used for all transfections by adding appropriate amounts of empty vector pcDNA. TG003 (Calbiochem) was added 4 hours after transfection and cells were harvested the next morning. The data presented is the average of 3 replicates from a single experiment, all luciferase experiments were performed at least 3 times with similar results.

[7] = test system: PEPCK mRNA expression in FAO hepatocytes; experiment: Pepck mRNA by Q-RT-PCR in FAO hepatocytes; assay type: cell-based, rat; settings: 20 uM TG003 for 7 hours
Procedure: (§3) Cells were grown in F-12+5% FBS then switched to 10% FBS and treated with or without 20 uM TG003 for 7 hours. Total RNA was isolated using Trizol (Invitrogen, Cat. # 15596-026) and reverse transcribed using oligo dT and super script II (Inivtrogen, Cat. # 18064-014). Pepck mRNA was measured by Q-RT-PCR relative to 36B4 control mRNA. Each bar is average+/−stdev N=3.
as §3, with “serum starved O/N and” for “grown in F-12+5% FBS”, “then” for “then switched to 10% FBS and”, “200 nM Insulin” for “20 uM TG003”, “2” for “7”

[8] = test system: diet-induced obese (DIO) C57BL/6 mice; experiment: IP dosing of TG003 in DIO mouse model; assay type: in vivo
Procedure: Specifically, 5 week old C57BL/6 mice (male 18-22 grams, Charles River Labs, Willmington, Mass.) are placed either on a high fat diet (Research Diets Inc., New Brunswick, N.J., 60% kcal fat Rodent Diet Cat#D12492) or regular chow. Mice are weighed once a week for 5 weeks, test baseline fed glucose, lactate, triglycerides and insulin. At approximately 6 weeks or when mean weight of the DIO groups reach 40 grams, dosing is initiated. TG003 was dosed via IP injection at either 30 or 100 mg/kg (TG003 suspended in 2% HPMC+0.2% DOSS as in previous example). Control DIO and chow fed animals were dosed with IP injection of vehicle alone. Once dosing starts data collections was as follows: Week 1 time point includes a fasted blood glucose measurement, Week 2 blood collection, Week 3 an IPGTT and Week 4 is an endpoint blood and tissue collection.
Mice are dosed at the same time daily. Body weights are taken 2 times a week once dosing starts. Baseline measurements of fed glucose, lactate, triglycerides and insulin are taken at time 0 (commencement of dosing).
Insulin Assay: Mouse insulin levels were measured using the Linco Rat/Mouse Insulin ELISA kit (Cat. #EZRMI-13K). 0 week, 2 week and 4 week blood insulin levels are shown in FIGS. 27A, 27B and 27C respectively for 100 mg/kg TG003 study. 0 week, 2 week and 4 week blood insulin levels are shown in FIGS. 31A, 31B and 31C respectively for 30 mg/kg TG003 study.
IPGTT: Mice are fasted for a minimum of 16 hrs. A glucose reading is taken at time Zero using a glucose meter. Mice are injected with 2 g/kg D-Glucose at one minute time points. A glucose reading is taken at 15, 30, 60, and 120 minutes (Medisense Precision Extra, Blood Glucose Meter, Abbott Cat# 70297-01).

[9] = test system: CLK2 phosphorylation of Sirt1 in HEK 293 cells; experiment: Metabolic 32P labeling of Flag-HA-Sirt1 in transfected HEK 293 cells; assay type: cell-based, human; settings: 40 uM TG003
Procedure: as §1, §2
Metabolic Labeling. HEK 293 were transfected as described above. […] Immunoprecipitates were resolved by SDS-PAGE and transferred to PVDF membrane, ^32PO4 was detected by exposing membrane to Phospho-imaging screen and followed by Western-Blot using anti-flag antibodies (M2, Sigma).

[10] = test system: gluconeogenic genes (PGC-1alpha targets) in FAO hepatocytes; experiment: Northern blot of PGC-1alpha target genes in FAO hepatocytes; assay type: cell-based, rat
Procedure: Northern Blot and RNA analysis. FAO hepatocytes were infected with indicated adenovirus overnight in RPMI+0.5% BSA. Cells were grown for 2 more days in RPMI+0.5% BSA. Cells were treated as indicated. Total RNA was isolated using Trizol (Invitrogen). Northern blots using indicated cDNAs were performed on 15 μg of total RNA. Quantitation of RNA was performed by exposing membranes to phosphor-imager screens and analyzed by a Bio-Rad Personal Imager FX and Quantity-One quantitation software (Bio-Rad).

[11] = systemic intraperitoneal delivery, DIO mice, 30 or 100 mg/kg
[12] = FAO hepatocytes overexpressing PGC-1alpha, increasing amounts of TG003

O=C(/C=C/c1cccc(C(=O)NO)c1)NO [CBHA, m-carboxy-cinnamic acid bishydroxamic acid]
inhibition of HDAC (HDAC): micromolar concentration or lower

C/C=C1\NC(=O)[C@H]2CSSCC/C=C/[C@H](CC(=O)N[C@H](C(C)C)C(=O)N2)OC(=O)[C@H](C(C)C)NC1=O [Depsipeptide]
inhibition of HDAC (HDAC): micromolar concentrations

O=c1cc(N2CCOCC2)oc2c(-c3ccccc3)cccc12 [LY]
insulin induction of CLK2 alternate splicing (truncated transcript) [1]: blocks | insulin-stimulated PGC-1alpha phosphorylation [2]: blocked | insulin-stimulated SIRT1 phosphorylation [2]: blocked

CCN1/C(=C/C(C)=O)Sc2ccc(OC)cc21 [TG003, (Z)-1-(3-ethyl-5-methoxy-2,3-dihydrobenzothiazol-2-ylidene) propan-2-one]
total phosphorylation of PGC-1alpha (32phosphate relative to protein levels) [3]: decreased | total phosphorylation of Sirt1 (32phosphate relative to protein levels) [3]: decreased | in vivo effect on body weight seen with IP dosing ([4]; 100 mg/kg oral dosing): did not repeat | fed insulin ([4]; 100 mg/kg oral vs vehicle, 2 week, DIO or chow groups): not much of an effect | fed blood glucose ([4]; 100 mg/kg oral vs vehicle, 4 week, DIO or chow groups): not much of an effect | body temperature ([4]; DIO animals, 100 mg/kg oral, 1 week of dosing): significant drop | drop in body temperature ([4]; DIO animals, 100 mg/kg oral, 4 weeks of dosing): > 2 degree | body temperature ([4]; chow fed group, 100 mg/kg oral): no significant effect | mobility of Sirt1 co-immunoprecipitated with CLK2 [5]: shifted to a band with faster mobility | CLK2 repression of PGC-1 alpha (luciferase activity) [6]: partially rescues | Pepck mRNA relative to 36B4 [7]: induction | drug remaining at injection site upon sacrifice ([8]; IP dosing, multiple injections): observed in the intraperitoneal cavity | blood glucose levels [8, 11]: decrease | blood insulin levels [8, 11]: decrease | body weight [8, 11]: decrease | incorporation of 32phosphate into Flag-HA-Sirt1 WT [9]: noticeably decreased | shift in Sirt1 mobility caused by overexpression of CLK2 [9]: abrogated | induction of G6Pase [10, 12]: seen in a dose dependent manner | induction of Pepck [10, 12]: seen in a dose dependent manner | CLK2 repression of PGC-1alpha induction of gluconeogenic genes (G6Pase, Pepck) ([10]; FAO hepatocytes, 40 μM TG003 for 1 hour then Fsk+Dex): rescued | insulin induction of CLK2 alternate splicing (truncated transcript) [1]: blocks | insulin-stimulated PGC-1alpha phosphorylation [2]: blocked | insulin-stimulated SIRT1 phosphorylation [2]: blocked

depudecin
inhibition of HDAC (HDAC): micromolar concentrations

trichostatin A [TSA]
inhibition of HDAC (HDAC): potent inhibitor
